Assay results reported in the NIST ThermoML archive (doi:10.1016/j.jct.2014.01.002).
Numbers after ± are expanded uncertainties.

Test: excess molar enthalpy (molar enthalpy of mixing); xn = mol fraction of the nth substance listed
Conditions: 298.15 K, 99 kPa, Liquid, Calvet calorimetry

C1CCCCC1 [cyclohexane] + CCCCCC
Conditions | excess molar enthalpy [kcal/mol]
x1 = 0.0524 | 0.00813 ± 0.000239
x1 = 0.1136 | 0.017 ± 0.000478
x1 = 0.1603 | 0.0232 ± 0.000478
x1 = 0.2014 | 0.0282 ± 0.000717
x1 = 0.2485 | 0.0335 ± 0.000717
x1 = 0.3022 | 0.0392 ± 0.000956
x1 = 0.3647 | 0.0442 ± 0.000956
x1 = 0.4379 | 0.049 ± 0.0012
x1 = 0.4819 | 0.0509 ± 0.0012
x1 = 0.5388 | 0.0526 ± 0.0012
x1 = 0.5621 | 0.0528 ± 0.0012
x1 = 0.6166 | 0.0526 ± 0.0012
x1 = 0.6576 | 0.0516 ± 0.0012
x1 = 0.7177 | 0.0483 ± 0.0012
x1 = 0.7702 | 0.0435 ± 0.000956
x1 = 0.8085 | 0.0392 ± 0.000956
x1 = 0.8623 | 0.0318 ± 0.000717
x1 = 0.9276 | 0.0191 ± 0.000478

CCCCCO [pentan-1-ol] + CCCCCC
Conditions | excess molar enthalpy [kcal/mol]
x1 = 0.0241 | 0.0686 ± 0.00143
x1 = 0.0501 | 0.0848 ± 0.00191
x1 = 0.0573 | 0.0887 ± 0.00191
x1 = 0.1085 | 0.103 ± 0.00215
x1 = 0.1504 | 0.112 ± 0.00239
x1 = 0.1912 | 0.121 ± 0.00263
x1 = 0.2341 | 0.127 ± 0.00287
x1 = 0.2905 | 0.129 ± 0.00287
x1 = 0.3433 | 0.13 ± 0.00287
x1 = 0.3934 | 0.128 ± 0.00287
x1 = 0.4452 | 0.125 ± 0.00263
x1 = 0.5771 | 0.0982 ± 0.00215
x1 = 0.5794 | 0.0985 ± 0.00215
x1 = 0.6531 | 0.0798 ± 0.00167
x1 = 0.6979 | 0.0672 ± 0.00143
x1 = 0.7463 | 0.0535 ± 0.0012
x1 = 0.803 | 0.0368 ± 0.000956
x1 = 0.9021 | 0.0151 ± 0.000478
